Data on 15 molecules can be found in ChEMBL document CHEMBL4393660, “New pyrazole derivatives: Synthesis, anti-inflammatory activity, cycloxygenase inhibition assay and evaluation of mPGES” (Eur J Med Chem, 2019).

One data set is filed under the species Homo sapiens. Briefly: Selectivity index, ratio of IC50 for human recombinant COX1 to IC50 for human recombinant COX-2 assessed as reduction in PGF2alpha formation using arachidonic acid as substrate preincubated with enzyme for 10 mins followed by substrate addition for 30 secs and measured after 1 hr by microplate reader based enzyme immunoassay.
Data set [1] has as its target T1, Prostaglandin G/H synthase 2 (Homo sapiens, UniProt P35354).
T1 sequence (P35354 whole entry): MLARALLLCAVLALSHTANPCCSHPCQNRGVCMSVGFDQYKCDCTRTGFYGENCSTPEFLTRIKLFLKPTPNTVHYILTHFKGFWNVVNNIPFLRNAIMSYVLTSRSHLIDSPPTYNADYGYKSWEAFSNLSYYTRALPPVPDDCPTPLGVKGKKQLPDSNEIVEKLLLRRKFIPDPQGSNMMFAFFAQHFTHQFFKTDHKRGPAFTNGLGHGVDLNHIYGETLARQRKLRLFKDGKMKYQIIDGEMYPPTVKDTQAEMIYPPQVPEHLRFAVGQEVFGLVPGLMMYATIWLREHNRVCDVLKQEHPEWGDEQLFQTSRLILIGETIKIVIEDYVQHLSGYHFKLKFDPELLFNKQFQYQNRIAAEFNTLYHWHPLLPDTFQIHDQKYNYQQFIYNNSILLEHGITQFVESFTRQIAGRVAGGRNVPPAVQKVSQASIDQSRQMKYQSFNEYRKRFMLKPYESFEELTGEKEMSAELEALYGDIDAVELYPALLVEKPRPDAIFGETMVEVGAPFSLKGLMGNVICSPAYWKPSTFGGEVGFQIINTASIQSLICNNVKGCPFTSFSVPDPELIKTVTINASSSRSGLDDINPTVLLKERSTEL
The data set can be described thus: Inhibition of human recombinant COX-2 assessed as reduction in PGF2alpha formation using arachidonic acid as substrate preincubated with enzyme for 10 mins followed by substrate addition for 30 secs and measured after 1 hr by microplate reader based enzyme immunoassay.

In data set [2] the target is Prostaglandin G/H synthase 1 (Homo sapiens, UniProt P23219). Briefly: Inhibition of human recombinant COX1 assessed as reduction in PGF2alpha formation using arachidonic acid as substrate preincubated with enzyme for 10 mins followed by substrate addition for 30 secs and measured after 1 hr by microplate reader based enzyme immunoassay.
The test system of data set [3] is Rattus norvegicus. Briefly: Anti-inflammatory activity against carrageenan-induced albino rat paw edema model assessed as inhibition of PGE2 production in plasma at 10 umol/kg, sc treated 1 hr prior to carrageenan challenge measured after 2 hrs by microplate reader based enzyme immunoassay relative to control. It counts as functional. For orientation: Carrageenan injected into the paw causes an acute inflammation.

Data set [4] has as its system Rattus norvegicus. Briefly: Anti-inflammatory activity against carrageenan-induced albino rat paw edema model assessed as inhibition of carrageenan-induced right hind paw edema at 10 umol/kg, sc treated 1 hr prior to carrageenan challenge and measured immediately after carrageenan treatment by plethysmometer relative to control. It counts as functional.
A short description of data set [5]: Toxicity in carrageenan-induced albino rat paw edema model assessed as Inhibition of cytosolic PGE2 synthase expression in plasma at 10 umol/kg, sc treated 1 hr prior to carrageenan challenge measured after 2 hrs by microplate reader based monoclonal sandwich ELISA assay. Particulars: in vivo. It counts as organism-based.
The subject of data set [6] is Rattus norvegicus. Briefly: Anti-inflammatory activity against carrageenan-induced albino rat paw edema model assessed as inhibition of carrageenan-induced right hind paw edema at 10 umol/kg, sc treated 1 hr prior to carrageenan challenge and measured at 6 hrs after carrageenan treatment by plethysmometer relative to control. It is filed as functional.
The test system of data set [7] is Rattus norvegicus. Briefly: Anti-inflammatory activity against carrageenan-induced albino rat paw edema model assessed as inhibition of carrageenan-induced right hind paw edema at 10 umol/kg, sc treated 1 hr prior to carrageenan challenge and measured at 1 hr after carrageenan treatment by plethysmometer relative to control. It counts as functional.
Data set [8] relates to Rattus norvegicus. Briefly: Anti-inflammatory activity against carrageenan-induced albino rat paw edema model assessed as inhibition of microsomal PGE2 synthase expression in plasma at 10 umol/kg, sc treated 1 hr prior to carrageenan challenge measured after 2 hrs by microplate reader based monoclonal sandwich ELISA assay. It is filed as functional.
The subject of data set [9] is Rattus norvegicus. Briefly: Anti-inflammatory activity against carrageenan-induced albino rat paw edema model assessed as inhibition of carrageenan-induced right hind paw edema at 10 umol/kg, sc treated 1 hr prior to carrageenan challenge and measured at 3 hrs after carrageenan treatment by plethysmometer relative to control. It is filed as functional.
In data set [10] the test system is Rattus norvegicus. The data set can be described thus: Anti-inflammatory activity against carrageenan-induced albino rat paw edema model assessed as inhibition of carrageenan-induced right hind paw edema at 10 umol/kg, sc treated 1 hr prior to carrageenan challenge and measured at 2 hrs after carrageenan treatment by plethysmometer relative to control. It counts as functional.

The subject of data set [11] is Rattus norvegicus. The data set can be described thus: Ratio of inhibition of microsomal PGE2 synthase expression to inhibition of cytosolic PGE2 synthase expression in plasma of carrageenan-induced albino rat paw edema model at 10 umol/kg, sc treated 1 hr prior to carrageenan challenge measured after 2 hrs by microplate reader based monoclonal sandwich ELISA assay.

Molecules are shown by their SMILES. Calls of active or inactive are those of the source. The calls are words filed in the database; no cut-off is given here.

Prostaglandin G/H synthase 1, sequence (P23219 whole entry): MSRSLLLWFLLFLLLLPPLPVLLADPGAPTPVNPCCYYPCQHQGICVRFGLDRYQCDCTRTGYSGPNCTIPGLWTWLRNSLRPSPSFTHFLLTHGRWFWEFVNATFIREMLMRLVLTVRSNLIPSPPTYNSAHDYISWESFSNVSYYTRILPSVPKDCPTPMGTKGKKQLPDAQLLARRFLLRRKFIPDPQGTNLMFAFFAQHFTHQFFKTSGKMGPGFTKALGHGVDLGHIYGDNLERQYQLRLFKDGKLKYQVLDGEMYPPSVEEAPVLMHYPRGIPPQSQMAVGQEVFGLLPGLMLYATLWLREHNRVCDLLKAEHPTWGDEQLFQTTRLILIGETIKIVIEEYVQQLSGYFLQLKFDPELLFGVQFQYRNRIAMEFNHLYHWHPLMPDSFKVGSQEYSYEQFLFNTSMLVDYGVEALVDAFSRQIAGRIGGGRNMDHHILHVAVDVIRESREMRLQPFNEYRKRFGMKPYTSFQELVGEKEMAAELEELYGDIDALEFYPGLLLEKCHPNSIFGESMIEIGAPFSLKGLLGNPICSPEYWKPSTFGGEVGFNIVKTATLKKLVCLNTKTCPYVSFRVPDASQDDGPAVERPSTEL

Broadly, the IC50 is the point on the concentration scale where inhibition reaches its midpoint. For the molecule `N#Cc1cnn(-c2ccc(S(N)(=O)=O)cc2)c1/N=C/c1ccccc1`, the Ratio IC50 in the data set filed under Homo sapiens was determined as 2.46. Moreover, the IC50 stood at 83 nM in [1] and 205 nM in data set [2].

As a reminder, the inhibition in vivo is how much of the control response was suppressed. Regarding `COc1ccc(/C=N/c2c(C#N)cnn2-c2ccc(S(N)(=O)=O)cc2)cc1`, in the data set listed under Homo sapiens, the Ratio IC50 stood at 13.1. Moreover, the half-inhibitory concentration (IC50) in data set [1] was 39.1 nM; in data set [2], 513 nM. Besides, the inhibition in vivo at 10 µmol/kg in the data set on Rattus norvegicus [3] amounted to 64.4%; with Rattus norvegicus [6] it was 42.3%; in the data set on Rattus norvegicus [8], 80.3%; in the data set on Rattus norvegicus [9] it was 33.6%; with Rattus norvegicus [10] it was 5.29%. The inhibition result in the data set on Rattus norvegicus [4] and in the data set on Rattus norvegicus [7] was “inactive” in each case. Besides, the “inhibition (INH)” value in data set [5] is on record as 52.43%.

For the molecule `N#Cc1cnn(-c2ccc(S(N)(=O)=O)cc2)c1NC(=O)CCN1CCOCC1`, in the data set listed under Homo sapiens, the Ratio IC50 was 22.2. Moreover, the IC50 in [1] was determined as 39.4 nM; in data set [2], 876 nM. In addition, the inhibition in vivo at 10 µmol/kg with Rattus norvegicus [3] was determined as 76.2%; with Rattus norvegicus [6], 44%; with Rattus norvegicus [7], 2.04%; with Rattus norvegicus [8] it was 74.1%; in the data set on Rattus norvegicus [9] it was 39.5%; in the data set with Rattus norvegicus [10] it was 27.5%. In the data set with Rattus norvegicus [4], the inhibition entry was “inactive”. In addition, the “inhibition (INH)” value in data set [5] is 44.43%. Moreover, the “fold change (FC)” value in the data set with Rattus norvegicus [11] is reported as 1.5.

For the molecule `CC(C(=O)Nc1c(C#N)cnn1-c1ccc(S(N)(=O)=O)cc1)N1CCOCC1` (configuration not stated), in the data set listed under Homo sapiens, the Ratio IC50 came to 1.31. For the same molecule, the concentration for half-maximal inhibition (IC50) in data set [1] came out at 123 nM; in [2], 161 nM.

As to `N#Cc1cnn(-c2ccc(S(N)(=O)=O)cc2)c1NC(=O)CCCl`, the Ratio IC50 in the data set filed under Homo sapiens turned out to be 2.12. The IC50 in data set [1] worked out at 58 nM; in [2] it was 123 nM.

As for `Cc1ccc(-c2cc(C(F)(F)F)nn2-c2ccc(S(N)(=O)=O)cc2)cc1` [CELECOXIB], the inhibition in vivo at 10 µmol/kg worked out at 69.6% in the data set on Rattus norvegicus [3]; 6.06% in the data set on Rattus norvegicus [4]; 42.6% with Rattus norvegicus [6]; 11.1% in the data set with Rattus norvegicus [7]; 80% in the data set with Rattus norvegicus [8]; 35% in the data set on Rattus norvegicus [9]. Besides, in the data set with Rattus norvegicus [10], the inhibition in vivo at 10 µmol/kg is 8.99%. The “inhibition (INH)” value in data set [5] stood at 51.11%.

With `N#Cc1cnn(-c2ccc(S(N)(=O)=O)cc2)c1/N=C/c1ccc(Cl)cc1`, the Ratio IC50 in the data set filed under Homo sapiens stood at 0.89. For the same molecule, the values for the half-maximal inhibitory concentration (IC50) in data set [1] and in data set [2] were 190 nM and 169 nM, respectively.

In the case of `N#Cc1cnn(-c2ccc(S(N)(=O)=O)cc2)c1NC(=O)c1ccccc1`, the Ratio IC50 in the data set listed under Homo sapiens is 1.3. Further, the half-maximal inhibitory concentration (IC50) in [1] was 56.2 nM; in [2], 73.3 nM.

Regarding `N#Cc1cnn(-c2ccc(S(N)(=O)=O)cc2)c1NC(=O)CN1CCOCC1`, the Ratio IC50 in the data set filed under Homo sapiens was found to be 1.89. Also, the 50% inhibitory concentration (IC50) was 34.2 nM in [1] and 64.7 nM in data set [2].

As for `N#Cc1cnn(-c2ccc(S(N)(=O)=O)cc2)c1/N=C/c1ccc(Br)cc1`, the Ratio IC50 in the data set listed under Homo sapiens turned out to be 1.78. The 50% inhibitory concentration (IC50) came out at 64.9 nM in data set [1] and 116 nM in data set [2].

As to `COc1ccc(/C=N/c2c(C#N)cnn2-c2ccc(S(N)(=O)=O)cc2)cc1OC`, in the data set filed under Homo sapiens, the Ratio IC50 is 3.72. Besides, the half-maximal inhibitory concentration (IC50) is 43.7 nM in [1] and 163 nM in [2].

In the case of `CC(Cl)C(=O)Nc1c(C#N)cnn1-c1ccc(S(N)(=O)=O)cc1` (configuration not stated), in the data set filed under Homo sapiens, the Ratio IC50 was 4.67. Moreover, the IC50 in data set [1] worked out at 108 nM; in data set [2] it was 507 nM.

For `N#Cc1cnn(-c2ccc(S(N)(=O)=O)cc2)c1NC(=O)CCl`, the Ratio IC50 in the data set filed under Homo sapiens stood at 5.24. Moreover, the results for the concentration for half-maximal inhibition (IC50) in data set [1] and in [2] were 19.9 nM and 104 nM, respectively. The inhibition in vivo at 10 µmol/kg in the data set on Rattus norvegicus [3] was determined as 67.5%; in the data set on Rattus norvegicus [4] it was 13.6%; in the data set with Rattus norvegicus [6] it was 46%; with Rattus norvegicus [7], 16.7%; with Rattus norvegicus [8], 80.7%; with Rattus norvegicus [9], 40.1%. The inhibition in vivo at 10 µmol/kg in the data set on Rattus norvegicus [10] was 26.5%. Also, the “inhibition (INH)” value in [5] is recorded as 31.55%. Also, in the data set on Rattus norvegicus [11], the “fold change (FC)” value came out at 2.5.

For `N#Cc1cnn(-c2ccc(S(N)(=O)=O)cc2)c1/N=C/c1ccc(F)cc1`, the Ratio IC50 in the data set listed under Homo sapiens is 17.5. Further, the IC50 in [1] was determined as 38.7 nM; in data set [2], 677 nM. The inhibition in vivo at 10 µmol/kg in the data set with Rattus norvegicus [3] was determined as 73.9%; in the data set with Rattus norvegicus [6], 43%; in the data set on Rattus norvegicus [7], 1.85%; with Rattus norvegicus [8], 74.7%; in the data set on Rattus norvegicus [9], 36.7%; in the data set on Rattus norvegicus [10] it was 7.94%. Further, in the data set with Rattus norvegicus [4], the inhibition result is “inactive”. Moreover, in data set [5], the “inhibition (INH)” value amounted to 48.52%.

As for `CC(=O)Nc1c(C#N)cnn1-c1ccc(S(=O)(=O)NC(C)=O)cc1`, in the data set filed under Homo sapiens, the Ratio IC50 turned out to be 14.3. For the same molecule, the results for the half-maximal inhibitory concentration (IC50) in data set [1] and in [2] were 61.2 nM and 879 nM, respectively. The inhibition in vivo at 10 µmol/kg in the data set with Rattus norvegicus [3] was 65.3%; in the data set with Rattus norvegicus [4] it was 0%; in the data set on Rattus norvegicus [6] it was 44.3%; with Rattus norvegicus [7] it was 9.26%; in the data set with Rattus norvegicus [8], 80%; with Rattus norvegicus [9], 35%. Also, in the data set on Rattus norvegicus [10], the inhibition in vivo at 10 µmol/kg was 17.5%. In [5], the “inhibition (INH)” value stood at 31.08%.
